Results on 28 compounds are retold here after patent publication US8124610B2, “Sodium channel inhibitors” (Icagen Inc., priority 2007, dated 2012).

The target in this assay is T1, hSCN9A (Homo sapiens, UniProt Q15858).
T1 construct: expressed in transfected cells
Nature of the assay: Whole-cell patch-clamp electrophysiology (conventional or PatchXpress), HEK cells expressing hSCN9A, estimated IC-50. The settings on record: estimated IC-50, HEK cells expressing hSCN9A; class symbols or bounds; read-out: SCN9A EIC-50. It is filed as cell-based. The procedure:
Human Embryonic Kidney (HEK) cells were transfected with hSCN3A or hSCN9A constructs using lipofectamine reagent (Invitrogen), using standard techniques. Cells stably expressing the hSCN3A or hSCN9A constructs were identified by their resistance to G-418 (400 μg/ml). Clones were screened for expression using the whole-cell voltage-clamp technique. HEK cells stably transfected with hSCN3A or hSCN9A were maintained in DMEM medium supplemented with 10% heat-inactivated fetal bovine serum and 400 μg/ml G418 sulfate in an incubator at 37° C. with a humidified atmosphere of 10% CO2. For HTS, cells were harvested from flasks by trypsinization and replated in an appropriate multi-well plate (typically 96 or 384 wells/plate) such that confluence would be achieved within 24 hours of plating. For electrophysiological studies, cells were removed from the culture flask by brief trypsinization and replated at low density onto glass cover slips. Cells were typically used for electrophysiological experiments within 24 to 72 h after plating. Cover slips containing HEK cells expressing hSCN3A or hSCN9A were placed in a bath on the stage of an inverted microscope and perfused (approximately 1 ml/min) with extracellular solution of the following composition: 138 mM NaCl, 2 mM CaCl2, 5.4 mM KCl, 1 mM MgCl2, 10 mM glucose, and 10 mM HEPES, pH 7.4, with NaOH. […] All recordings were made at room temperature (22-24° C.) using AXOPATCH 200B amplifiers and PCLAMP software (Axon Instruments, Burlingame, Calif.) or PatchXpress 7000 hardware and associated software (Axon Instruments, Burlingame, Calif.). hSCN3A or hSCN9A currents in HEK cells were measured using the whole-cell configuration of the patch-clamp technique (Hamill et al., 1981). […] As a result, voltage errors were negligible and no correction was applied. Current records were acquired at 20 to 50 KHz and filtered at 5 to 10 KHz. HEK cells stably transfected with hSCN3A or hSCN9A were viewed under Hoffman contrast optics and placed in front of an array of flow pipes emitting either control or compound-containing extracellular solutions. All compounds were dissolved in dimethyl sulfoxide to make 10 mM stock solutions, which were then diluted into extracellular solution to attain the final concentrations desired. […] The voltage-dependence of inactivation was determined by applying a series of depolarizing prepulses (8 sec long in 10 mV increments) from a negative holding potential. The voltage was then immediately stepped to 0 mV to assess the magnitude of the sodium current. Currents elicited at 0 mV were plotted as a function of prepulse potential to allow estimation of the voltage midpoint of inactivation (V1/2). Cells were then voltage clamped at the empirically determined V1/2. Compounds were tested for their ability to inhibit hSCN3A or hSCN9A sodium channels by activating the channel with a 20 msec voltage step to 0 mV following an 8 second conditioning prepulse to the empirically determined V1-2 (Table B). Compound effect (% inhibition) was determined by difference in current amplitude before and after application of test compounds. […] In some cases electrophysiological assays were conducted with PatchXpress 7000 hardware and associated software (Molecular Devices Corp) (Table B). All assay buffers and solutions were identical to those used in conventional whole-cell voltage clamp experiments described above. hSCN3A or hSCN9A containing cells were grown as above to 50%-80% confluency and harvested by trypsinization. Trypsinized cells were washed and resuspended in extracellular buffer at a concentration of 1×10^6 cells/ml. The onboard liquid handling facility of the PatchXpress was used for dispensing cells and application of test compounds. Determination of the voltage midpoint of inactivation was as described for conventional whole-cell recordings. Cells were then voltage-clamped to the empirically determined V1/2 and current was activated by a 20 msec voltage step to 0 mV.

T1 sequence (Q15858 whole entry): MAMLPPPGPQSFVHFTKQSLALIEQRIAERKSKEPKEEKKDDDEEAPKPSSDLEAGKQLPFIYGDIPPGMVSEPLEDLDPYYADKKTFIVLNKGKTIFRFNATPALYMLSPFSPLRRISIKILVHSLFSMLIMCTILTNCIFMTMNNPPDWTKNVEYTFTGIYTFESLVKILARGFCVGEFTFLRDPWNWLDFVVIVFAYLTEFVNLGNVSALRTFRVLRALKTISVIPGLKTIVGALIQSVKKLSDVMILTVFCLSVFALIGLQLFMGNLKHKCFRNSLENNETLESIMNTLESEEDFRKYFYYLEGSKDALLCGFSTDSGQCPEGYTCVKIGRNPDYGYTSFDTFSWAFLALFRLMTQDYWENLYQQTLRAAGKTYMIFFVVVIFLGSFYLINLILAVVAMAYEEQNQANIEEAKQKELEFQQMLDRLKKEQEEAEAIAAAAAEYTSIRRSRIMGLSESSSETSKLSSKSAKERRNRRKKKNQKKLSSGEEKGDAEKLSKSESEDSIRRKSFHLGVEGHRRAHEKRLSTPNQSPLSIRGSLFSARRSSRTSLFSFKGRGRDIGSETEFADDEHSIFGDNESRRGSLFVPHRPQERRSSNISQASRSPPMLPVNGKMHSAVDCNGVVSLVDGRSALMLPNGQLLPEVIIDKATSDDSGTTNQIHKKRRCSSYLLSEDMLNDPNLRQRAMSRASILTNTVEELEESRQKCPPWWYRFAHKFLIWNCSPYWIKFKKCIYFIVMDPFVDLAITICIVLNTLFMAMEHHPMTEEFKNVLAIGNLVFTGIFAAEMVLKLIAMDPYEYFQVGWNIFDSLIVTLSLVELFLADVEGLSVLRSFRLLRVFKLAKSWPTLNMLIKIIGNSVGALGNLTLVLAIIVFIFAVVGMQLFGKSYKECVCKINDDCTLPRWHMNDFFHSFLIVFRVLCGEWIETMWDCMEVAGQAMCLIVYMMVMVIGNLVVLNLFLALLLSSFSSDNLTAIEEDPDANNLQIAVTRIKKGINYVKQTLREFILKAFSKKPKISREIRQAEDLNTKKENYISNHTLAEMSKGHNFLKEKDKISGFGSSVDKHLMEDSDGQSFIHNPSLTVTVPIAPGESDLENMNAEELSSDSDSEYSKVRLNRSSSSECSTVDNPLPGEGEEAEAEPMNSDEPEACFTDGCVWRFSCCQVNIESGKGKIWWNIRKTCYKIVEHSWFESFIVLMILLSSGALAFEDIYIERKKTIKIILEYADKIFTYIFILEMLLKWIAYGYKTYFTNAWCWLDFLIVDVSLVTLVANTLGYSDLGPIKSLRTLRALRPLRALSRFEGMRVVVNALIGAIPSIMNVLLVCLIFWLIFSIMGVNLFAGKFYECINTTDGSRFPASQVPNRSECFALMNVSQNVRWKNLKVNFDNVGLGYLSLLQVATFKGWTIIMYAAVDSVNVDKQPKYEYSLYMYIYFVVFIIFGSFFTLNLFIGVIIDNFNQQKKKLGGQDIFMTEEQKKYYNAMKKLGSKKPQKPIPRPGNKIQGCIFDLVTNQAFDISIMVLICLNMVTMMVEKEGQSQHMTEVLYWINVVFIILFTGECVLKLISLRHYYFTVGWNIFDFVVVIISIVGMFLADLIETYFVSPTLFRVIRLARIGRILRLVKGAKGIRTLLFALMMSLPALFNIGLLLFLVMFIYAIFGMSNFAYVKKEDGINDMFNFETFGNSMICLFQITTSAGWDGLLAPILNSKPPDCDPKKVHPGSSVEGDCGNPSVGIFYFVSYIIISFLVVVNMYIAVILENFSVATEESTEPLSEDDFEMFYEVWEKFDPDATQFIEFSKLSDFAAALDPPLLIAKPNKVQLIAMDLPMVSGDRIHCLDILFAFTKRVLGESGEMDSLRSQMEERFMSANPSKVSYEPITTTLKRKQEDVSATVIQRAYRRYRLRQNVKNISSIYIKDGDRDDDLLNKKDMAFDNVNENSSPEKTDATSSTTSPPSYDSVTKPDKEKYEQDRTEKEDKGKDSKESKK

For `CC(C)(C)c1ccc(OCc2csc(Nc3ccc(S(=O)(=O)Nc4nccs4)c(F)c3)n2)cc1` [Compound 102, 4-(4-((4-tert-butylphenoxy)methyl)thiazol-2-ylamino)-2-fluoro-N-(thiazol-2-yl)benzenesulfonamide], the IC50 is less than 2000 nM. Take `O=S(=O)(Nc1nccs1)c1ccc(Nc2nc(-c3ccc(Cl)cc3)cs2)cc1F` [Compound 104, 4-(4-(4-chlorophenyl)thiazol-2-ylamino)-2-fluoro-N-(thiazol-2-yl)benzenesulfonamide]: the IC50 is more than 1000 nM. `O=S(=O)(Nc1nccs1)c1ccc(Nc2nc3ccccc3o2)cc1` [Compound 114, 4-(benzo[d]oxazol-2-ylamino)-N-(thiazol-2-yl)benzenesulfonamide]: the IC50 is 2000 to 10000 nM. Take `CC(C)(C)c1csc(Nc2ccc(S(=O)(=O)Nc3nccs3)nc2)n1` [Compound 116, 5-(4-tert-butylthiazol-2-ylamino)-N-(thiazol-2-yl)pyridine-2-sulfonamide]: the IC50 was more than 1000 nM. In the case of `O=S(=O)(Nc1nccs1)c1ccc(Nc2nc3ccccc3s2)cc1` [Compound 117, 4-(benzo[d]thiazol-2-ylamino)-N-(thiazol-2-yl)benzenesulfonamide] it was more than 1000 nM; in that of `O=S(=O)(Nc1nccs1)c1ccc(Nc2nnc(Cc3ccc(Cl)cc3)o2)cc1` [Compound 118, 4-(5-(4-chlorobenzyl)-1,3,4-oxadiazol-2-ylamino)-N-(thiazol-2-yl)benzenesulfonamide], more than 1000 nM. In the case of `Cn1nc(Cc2ccc(Cl)cc2)c(C#N)c1Nc1ccc(S(=O)(=O)Nc2nccs2)cc1` [Compound 119, 4-(3-(4-chlorobenzyl)-4-cyano-1-methyl-1H-pyrazol-5-ylamino)-N-(thiazol-2-yl)benzenesulfonamide] it was 2000 to 10000 nM.

Take `O=S(=O)(Nc1nccs1)c1ccc(Nc2nnc(Cc3ccc(Cl)cc3)s2)cc1` [Compound 120, 4-(5-(4-chlorobenzyl)-1,3,4-thiadiazol-2-ylamino)-N-(thiazol-2-yl)benzenesulfonamide]: the IC50 is 2000 to 10000 nM. As for `Cn1nc(Cc2ccc(Cl)cc2)c(C(N)=O)c1Nc1ccc(S(=O)(=O)Nc2nccs2)cc1` [Compound 121, 3-(4-chlorobenzyl)-1-methyl-5-(4-(N-thiazol-2-ylsulfamoyl)phenylamino)-1H-pyrazole-4-carboxamide], the figure is more than 1000 nM; as for `Cc1nn(C)c(Nc2ccc(S(=O)(=O)Nc3nccs3)cc2)c1-c1ccccc1` [Compound 122, 4-(1,3-dimethyl-4-phenyl-1H-pyrazol-5-ylamino)-N-(thiazol-2-yl)benzenesulfonamide], more than 1000 nM; as for `Cc1nn(C(C)(C)C)c(Nc2ccc(S(=O)(=O)Nc3nccs3)cc2)c1-c1ccccc1` [Compound 123, 4-(1-tert-butyl-3-methyl-4-phenyl-1H-pyrazol-5-ylamino)-N-(thiazol-2-yl)benzenesulfonamide], more than 1000 nM. Turning to `Cc1n[nH]c(Nc2ccc(S(=O)(=O)Nc3nccs3)cc2)c1-c1ccccc1` [Compound 124, 4-(3-methyl-4-phenyl-1H-pyrazol-5-ylamino)-N-(thiazol-2-yl)benzenesulfonamide], the IC50 was more than 1000 nM. Consider `Cn1nc(CC(C)(C)C)cc1Nc1ccc(S(=O)(=O)Nc2nccs2)cc1` [Compound 125, 4-(1-methyl-3-neopentyl-1H-pyrazol-5-ylamino)-N-(thiazol-2-yl)benzenesulfonamide], for which the IC50 was 2000 to 10000 nM.

`COc1ccc(Cc2cc(Nc3ccc(S(=O)(=O)Nc4nccs4)cc3)n(C)n2)cc1` [Compound 126, 4-(3-(4-methoxybenzyl)-1-methyl-1H-pyrazol-5-ylamino)-N-(thiazol-2-yl)benzenesulfonamide]: the IC50 is more than 1000 nM. On to `COc1ccccc1Cc1cc(Nc2ccc(S(=O)(=O)Nc3nccs3)cc2)n(C)n1` [Compound 127, 4-(3-(2-methoxybenzyl)-1-methyl-1H-pyrazol-5-ylamino)-N-(thiazol-2-yl)benzenesulfonamide], for which the IC50 was 2000 to 10000 nM.

Take `Cc1cc(Nc2ccc(S(=O)(=O)Nc3nccs3)cc2)n(Cc2ccc(Cl)cc2)n1` [Compound 128, 4-(1-(4-chlorobenzyl)-3-methyl-1H-pyrazol-5-ylamino)-N-(thiazol-2-yl)benzenesulfonamide]: the IC50 is 2000 to 10000 nM.

Regarding `Cc1cc(Nc2ccc(S(=O)(=O)Nc3nccs3)cc2)n(Cc2ccncc2)n1` [Compound 131, 4-(3-methyl-1-(pyridin-4-ylmethyl)-1H-pyrazol-5-ylamino)-N-(thiazol-2-yl)benzenesulfonamide], the IC50 is more than 1000 nM. Turning to `Cc1cc(Nc2ccc(S(=O)(=O)Nc3nccs3)cc2)n(CC2CCCCC2)n1` [Compound 132, 4-(1-(cyclohexylmethyl)-3-methyl-1H-pyrazol-5-ylamino)-N-(thiazol-2-yl)benzenesulfonamide], the IC50 is more than 1000 nM. With `O=C1CC(c2ccccc2)Cc2nc(Nc3ccc(S(=O)(=O)Nc4nccs4)cc3)sc21` (stereo not shown) [Compound 135, 4-(7-oxo-5-phenyl-4,5,6,7-tetrahydrobenzo[d]thiazol-2-ylamino)-N-(thiazol-2-yl)benzenesulfonamide], the IC50 is more than 1000 nM. Take `CC1(C)CC(=O)c2sc(Nc3ccc(S(=O)(=O)Nc4nccs4)cc3)nc2C1` [Compound 136, 4-(5,5-dimethyl-7-oxo-4,5,6,7-tetrahydrobenzo[d]thiazol-2-ylamino)-N-(thiazol-2-yl)benzenesulfonamide]: the IC50 was more than 1000 nM. Consider `Cc1cc(Nc2ccc(S(=O)(=O)Nc3nccs3)cc2)n(-c2ccc(Cl)cc2)n1` [Compound 137, 4-(1-(4-chlorophenyl)-3-methyl-1H-pyrazol-5-ylamino)-N-(thiazol-2-yl)benzenesulfonamide], for which the IC50 is 2000 to 10000 nM. Turning to `Cn1nc(Cc2ccc(C(F)(F)F)cc2)cc1Nc1ccc(S(=O)(=O)Nc2nccs2)cc1` [Compound 138, 4-(1-methyl-3-(4-(trifluoromethyl)benzyl)-1H-pyrazol-5-ylamino)-N-(thiazol-2-yl)benzenesulfonamide], the IC50 was less than 2000 nM. On to `Cn1nc(Cc2ccc(F)cc2F)cc1Nc1ccc(S(=O)(=O)Nc2nccs2)cc1` [Compound 139, 4-(3-(2,4-difluorobenzyl)-1-methyl-1H-pyrazol-5-ylamino)-N-(thiazol-2-yl)benzenesulfonamide], for which the IC50 is less than 2000 nM. For the compound `Cc1cc(Nc2ccc(S(=O)(=O)Nc3nccs3)c(F)c2)n(-c2ccc(Cl)cc2)n1` [Compound 140, 4-(1-(4-chlorophenyl)-3-methyl-1H-pyrazol-5-ylamino)-2-fluoro-N-(thiazol-2-yl)benzenesulfonamide], the IC50 is less than 2000 nM. Regarding `Cn1nc(Cc2ccc(Cl)cc2)cc1Nc1ccc(S(=O)(=O)Nc2nccs2)c(F)c1` [Compound 141, 4-(3-(4-chlorobenzyl)-1-methyl-1H-pyrazol-5-ylamino)-2-fluoro-N-(thiazol-2-yl)benzenesulfonamide], the IC50 was less than 2000 nM.

For the compound `Cn1nc(C2(c3ccc(Cl)cc3)CC2)cc1Nc1ccc(S(=O)(=O)Nc2nccs2)cc1F` [Compound 142, 4-(3-(1-(4-chlorophenyl)cyclopropyl)-1-methyl-1H-pyrazol-5-ylamino)-3-fluoro-N-(thiazol-2-yl)benzenesulfonamide], the IC50 is less than 2000 nM. For `Cn1nc(Cc2ccc(Cl)cc2)cc1Nc1ccc(S(=O)(=O)Nc2nccs2)cc1F` [Compound 143, 4-(3-(4-chlorobenzyl)-1-methyl-1H-pyrazol-5-ylamino)-3-fluoro-N-(thiazol-2-yl)benzenesulfonamide], the IC50 is less than 2000 nM.

For `O=S(=O)(Nc1nccs1)c1ccc(Nc2cc(C3CC3)nn2-c2ccccc2)cc1` [Compound 144, 4-(3-cyclopropyl-1-phenyl-1H-pyrazol-5-ylamino)-N-(thiazol-2-yl)benzenesulfonamide], the IC50 was less than 2000 nM.
